# Patent US20140308244A1, “Combination Therapy for Treatment of Inflammatory Demyelinating Disease” (The Board of Trustees of the Leland Stanford Junior …, priority 2011, published 2014)
# Legend:
# [1] = tested on: experimental autoimmune encephalomyelitis (EAE); conditions: mouse model for multiple sclerosis; Platten et al, 2009, PNAS 106:14948; cited from earlier work
# EAE = EAE relapse model: Rebif and/or Lisinopril treatment initiated at peak of disease; type: in vivo; conditions: Rebif daily 0.25 μg/mouse intraperitoneally, Lisinopril 1 mg/kg/day orally
# Description: FIG. 2 is a graph of disease scores for EAE, when combination treatment of Rebif and Lisinopril is initiated at the peak of disease.
# In this instance, Rebif was given daily (0.25 μg/mouse, intraperitoneally), and Lisinopril was given daily (1 mg/kg/day, orally).
smiles,measurement,setting,value
NCCCC[C@H](N[C@@H](CCc1ccccc1)C(=O)O)C(=O)N1CCC[C@H]1C(=O)O [Lisinopril],efficacy in treating EAE,[1],effective
same,Average Relapse Rate,EAE,0.7
same,Average Relapse Rate,EAE; listed as PBS/Lisinopril,0.70
